Results published in patent US20210347778A1, “HYDRAZINOPURINE COMPOUND AND TRIAZOLOPURINE COMPOUND FOR INHIBITING XANTHINE OXIDASE” (TERA STONE CO., LTD, priority 2018, published 2021).

Key:
[1] = rats; cited from earlier work
[2] = target: T1, cow milk-derived xanthine oxidase (XOD) (Bos taurus, UniProt P80457); assay: Xanthine oxidase inhibition activity (inhibition of uric acid formation); assay type: biochemical; conditions: for IC50: xanthine 100 μM, XOD 10 mU/mL, 50 mM phosphate buffer pH 7.4, room temperature 15 minutes, O.D. 292 nm; for xanthine oxidase inhibition activity compared with allopurinol: in words, versus allopurinol
T1 construct: cow milk-derived xanthine oxidase (XOD) (10 mU/mL); from tissue; host or cells: cow milk
Protocol: In a 50 mM phosphate buffer (pH 7.4), xanthine (100 μM), cow milk-derived xanthine oxidase (XOD) (10 mU/mL), and a test compound were mixed and the mixture was incubated at room temperature for 15 minutes.

[3] = patients administered allopurinol; cited from earlier work

T1 sequence (P80457 whole entry): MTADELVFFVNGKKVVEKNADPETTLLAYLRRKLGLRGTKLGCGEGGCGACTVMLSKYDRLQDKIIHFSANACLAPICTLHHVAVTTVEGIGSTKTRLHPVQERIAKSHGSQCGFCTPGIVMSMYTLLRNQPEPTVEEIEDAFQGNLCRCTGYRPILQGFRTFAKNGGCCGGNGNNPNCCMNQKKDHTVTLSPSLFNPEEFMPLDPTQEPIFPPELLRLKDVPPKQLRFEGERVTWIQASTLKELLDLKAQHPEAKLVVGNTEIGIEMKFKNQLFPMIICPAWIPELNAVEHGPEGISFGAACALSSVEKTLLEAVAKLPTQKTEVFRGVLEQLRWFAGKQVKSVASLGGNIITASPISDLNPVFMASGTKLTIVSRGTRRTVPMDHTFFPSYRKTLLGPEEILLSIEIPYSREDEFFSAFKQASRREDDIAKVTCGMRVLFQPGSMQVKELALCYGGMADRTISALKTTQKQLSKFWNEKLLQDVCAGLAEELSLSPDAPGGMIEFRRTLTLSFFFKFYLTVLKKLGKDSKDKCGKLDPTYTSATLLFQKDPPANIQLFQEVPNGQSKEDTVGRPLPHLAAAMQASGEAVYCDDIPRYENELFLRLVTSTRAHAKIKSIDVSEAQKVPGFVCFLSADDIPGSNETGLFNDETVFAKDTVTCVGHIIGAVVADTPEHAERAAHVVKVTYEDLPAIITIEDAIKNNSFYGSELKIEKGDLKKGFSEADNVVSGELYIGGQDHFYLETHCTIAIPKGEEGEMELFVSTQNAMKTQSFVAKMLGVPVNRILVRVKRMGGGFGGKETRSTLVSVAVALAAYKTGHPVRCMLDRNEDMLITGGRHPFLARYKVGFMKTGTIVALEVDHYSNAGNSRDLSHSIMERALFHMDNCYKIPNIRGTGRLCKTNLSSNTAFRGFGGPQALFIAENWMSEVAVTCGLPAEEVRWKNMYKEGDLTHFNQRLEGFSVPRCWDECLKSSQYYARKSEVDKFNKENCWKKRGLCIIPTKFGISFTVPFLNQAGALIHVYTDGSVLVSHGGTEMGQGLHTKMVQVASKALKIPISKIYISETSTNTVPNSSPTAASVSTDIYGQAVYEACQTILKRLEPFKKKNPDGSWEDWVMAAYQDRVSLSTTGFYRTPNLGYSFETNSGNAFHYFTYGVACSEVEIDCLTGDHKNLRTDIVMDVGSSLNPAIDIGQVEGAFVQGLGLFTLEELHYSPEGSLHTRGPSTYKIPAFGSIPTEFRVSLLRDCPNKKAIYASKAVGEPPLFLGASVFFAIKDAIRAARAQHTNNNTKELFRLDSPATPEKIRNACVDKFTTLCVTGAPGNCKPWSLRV

Compound	IC50 [2]	melting point	other results
Cc1nc(-c2ccc(OCC(C)C)c(C#N)c2)sc1C(=O)O [Febuxostat]			excreted through non-renal excretion pathways [1]: about 50%
O=c1nc(NN=Cc2ccc(F)cc2)c2[nH]cnc2[nH]1 [I-1]	38 nM		
O=c1nc(NN=Cc2ccc(Cl)cc2)c2[nH]cnc2[nH]1 [I-2]	25 nM		
CN(C)c1ccc(C=NNc2nc(=O)[nH]c3nc[nH]c23)cc1 [I-3]	75 nM		
O=c1nc(NN=Cc2ccc([N+](=O)[O-])cc2)c2[nH]cnc2[nH]1 [I-4]	45 nM		
COc1ccc(C=NNc2nc(=O)[nH]c3nc[nH]c23)cc1 [I-5]	57 nM		
O=c1nc(NN=Cc2ccc3c(c2)OCO3)c2[nH]cnc2[nH]1 [I-6]	63 nM		
O=c1nc(NN=Cc2ccc(O)cc2)c2[nH]cnc2[nH]1 [I-7]	45 nM		
CCCCCCCC=NNc1nc(=O)[nH]c2nc[nH]c12 [I-8, 6-n-octylidenehydrazino-7H-purin-2(3H)-one]	2020 nM	190 °C	
O=c1nc(NN=Cc2ccccc2)c2[nH]cnc2[nH]1 [I-9]	50 nM	300 °C	
Cc1ccc(C=NNc2nc(=O)[nH]c3nc[nH]c23)cc1 [I-10]	20 nM	> 300 °C	
COc1cc(C=NNc2nc(=O)[nH]c3nc[nH]c23)cc(OC)c1OC [I-11]	208 nM		
O=c1nc(NN=Cc2ccc(O)c(O)c2)c2[nH]cnc2[nH]1 [I-12]	349 nM	> 300 °C	
O=c1nc(NN=Cc2ccc(O)c(O)c2O)c2[nH]cnc2[nH]1 [I-13]	1480 nM	> 300 °C	
COc1ccccc1C=NN(C)c1nc(=O)[nH]c2nc[nH]c12 [I-14]	79 nM		
COc1cccc(C=NN(C)c2nc(=O)[nH]c3nc[nH]c23)c1 [I-15]	100 nM		
COc1ccc(C=NN(C)c2nc(=O)[nH]c3nc[nH]c23)cc1 [I-16]	76 nM		
CN(N=Cc1ccc(F)cc1)c1nc(=O)[nH]c2nc[nH]c12 [I-17]	116 nM		
CN(N=Cc1ccc(O)cc1)c1nc(=O)[nH]c2nc[nH]c12 [I-18]	93 nM		
CCCCCCCC=NN(C)c1nc(=O)[nH]c2nc[nH]c12 [I-19, 6-(1-methyl-2-n-octylidenehydrazino)-7H-purin-2(3H)-one]	> 10000 nM	248 °C	
COc1cc(C=NN(C)c2nc(=O)[nH]c3nc[nH]c23)cc(OC)c1OC [I-20]	> 10000 nM	> 300 °C	
CN(N=Cc1ccc(O)c(O)c1)c1nc(=O)[nH]c2nc[nH]c12 [I-21]	> 10000 nM	> 300 °C	
CN(N=Cc1ccc(O)c(O)c1O)c1nc(=O)[nH]c2nc[nH]c12 [I-22]	> 10000 nM	> 300 °C	
Cc1nc2[nH]c(=O)nc(NN=Cc3ccc([N+](=O)[O-])cc3)c2[nH]1 [I-33, 8-methyl-6-(4-nitrobenzylidenehydrazino)-7H-purin-2(3H)-one]		> 330 °C	
O=c1nc(NN=Cc2ccccc2)c2[nH]c(-c3ccccc3)nc2[nH]1 [I-34]	> 10000 nM	318 °C	

Compound	IC50 [2]	melting point	other results
O=c1nc(NN=Cc2ccc(Cl)cc2)c2[nH]c(-c3ccccc3)nc2[nH]1 [I-35]	> 10000 nM	> 330 °C	
Cc1ccc(C=NNc2nc(=O)[nH]c3nc(-c4ccccc4)[nH]c23)cc1 [I-36]	> 10000 nM	321 °C	
COc1ccc(C=NNc2nc(=O)[nH]c3nc(-c4ccccc4)[nH]c23)cc1 [I-37]	9210 nM	314 °C	xanthine oxidase inhibition activity compared with allopurinol [2]: higher xanthine oxidase inhibition activity than allopurinol
O=c1nc(NN=Cc2ccc([N+](=O)[O-])cc2)c2[nH]c(-c3ccccc3)nc2[nH]1 [I-38, 6-(4-nitrobenzylidenehydrazino)-8-phenyl-7H-purin-2(3H)-one]	4480 nM	> 330 °C	xanthine oxidase inhibition activity compared with allopurinol [2]: higher xanthine oxidase inhibition activity than allopurinol
O=c1nc(NN=Cc2ccc([N+](=O)[O-])cc2)c2[nH]c(-c3ccc(Cl)cc3)nc2[nH]1 [I-43, 8-(4-chlorophenyl)-6-(4-nitrobenzylidenehydrazino)-7H-purin-2(3H)-one]		229 °C	
O=c1[nH]c2nc[nH]c2c2ncnn12 [II-1]	> 10000 nM	262 °C	
Cc1nc2c3[nH]cnc3[nH]c(=O)n2n1 [II-2]	> 10000 nM	277 °C	
O=c1[nH]c2nc[nH]c2c2nc(-c3ccccc3)nn12 [II-3]	2570 nM	> 300 °C	
O=c1[nH]c2nc[nH]c2c2nc(-c3ccc(Cl)cc3)nn12 [II-4]	66 nM	285 °C	
COc1ccc(-c2nc3c4[nH]cnc4[nH]c(=O)n3n2)cc1 [II-5]	130 nM	288 °C	
CCCCCCCc1nc2c3[nH]cnc3[nH]c(=O)n2n1 [II-6]	9200 nM	> 270 °C	
Cc1ccc(-c2nc3c4[nH]cnc4[nH]c(=O)n3n2)cc1 [II-7]	2400 nM	> 300 °C	
O=c1[nH]c2nc[nH]c2c2nc(-c3ccc([N+](=O)[O-])cc3)nn12 [II-8]	4270 nM	> 300 °C	
COc1cc(-c2nc3c4[nH]cnc4[nH]c(=O)n3n2)cc(OC)c1OC [II-9]	2010 nM	> 283 °C	
O=c1[nH]c2nc[nH]c2c2nc(-c3ccc(O)c(O)c3)nn12 [II-10]	1480 nM	> 285 °C	
Cn1cnc2c1c1nc(-c3ccc(Cl)cc3)nn1c(=O)n2C [II-14]	> 10000 nM	> 330 °C	
Cn1cnc2c1c1nc(-c3ccc([N+](=O)[O-])cc3)nn1c(=O)n2C [II-17]	> 10000 nM	> 330 °C	
Cc1nc2[nH]c(=O)n3nc(-c4ccc([N+](=O)[O-])cc4)nc3c2[nH]1 [II-24]	> 10000 nM	> 330 °C	
O=c1[nH]c2nc(-c3ccccc3)[nH]c2c2ncnn12 [II-25]	9910 nM	> 330 °C	xanthine oxidase inhibition activity compared with allopurinol [2]: higher xanthine oxidase inhibition activity than allopurinol
O=c1[nH]c2nc(-c3ccccc3)[nH]c2c2nc(-c3ccc([N+](=O)[O-])cc3)nn12 [II-31]	> 10000 nM	> 330 °C	
O=c1[nH]c2nc(-c3ccc(Cl)cc3)[nH]c2c2ncnn12 [II-32]	1090 nM	> 330 °C	xanthine oxidase inhibition activity compared with allopurinol [2]: higher xanthine oxidase inhibition activity than allopurinol
Cn1cnc2c1c1nncn1c(=O)n2C [III-1, 6,9-dimethyl-9H-1,2,4-triazolo[3,4-i]purin-5(6H)-one]		264 °C	
Cc1nnc2c3c(ncn3C)n(C)c(=O)n12 [III-2, 3,6,9-trimethyl-9H-1,2,4-triazolo[3,4-i]purin-5(6H)-one]		270 °C	
Oc1ncnc2[nH]ncc12 [allopurinol]			patients suffering from side effects (severe skin disorders, hypersensitivity vasculitis) [3]: three to five
